Test results: ChEMBL document CHEMBL1124713, “Synthesis of N-[N-(4-deoxy-4-amino-10-methylpteroyl)-4-fluoroglutamyl]- gamma-glutamate, an unusual substrate for folylpoly-gamma-glutamate synthetase and gamma-glutamyl hydrolase” (J Med Chem, 1990)

How the values were obtained:
Format in all cases: ADME
[1] = Kinetic constant relative(Vmax) was determined in FPGS-catalyzed reaction
[2] = test system: FPGS (folylpolyglutamate synthetase); assay: Kinetic constant(Km) was determined in FPGS-catalyzed reaction
[3] = Ratio of relative Vmax to Km was determined

| Relative Vmax [1] | Km [2] | Ratio [3] | Structure (SMILES) |
| --- | --- | --- | --- |
| 0.23 | 100 µM | 0.0023 | CN(Cc1cnc2nc(N)nc(N)c2n1)c1ccc(C(=O)NC(CC(F)C(=O)NC(CCC(=O)O)C(=O)O)C(=O)O)cc1 (centres undefined) |
| 0.45 | 38 µM | 0.012 | CN(Cc1cnc2nc(N)nc(N)c2n1)c1ccc(C(=O)NC(CCC(=O)NC(CCC(=O)O)C(=O)O)C(=O)O)cc1 (centres undefined) |
| 1 | 42 µM | 0.024 | CN(Cc1cnc2nc(N)nc(N)c2n1)c1ccc(C(=O)N[C@@H](CCC(=O)O)C(=O)O)cc1 [METHOTREXATE] |
